Reference: publication PMC4589331, “Interactions of L-3,5,3'-Triiodothyronine, Allopregnanolone, and Ivermectin with the GABAA Receptor: Evidence for Overlapping Intersubunit Binding Modes” (PLoS ONE, 2015)

Experiments:
α1β1γ2 GABAA receptor = target: T1, α1β1γ2 GABAA receptor (Homo sapiens, UniProt P14867+P18505+P18507); assay: Two-electrode voltage-clamp recording of GABAA receptors expressed in Xenopus oocytes; type: cell-based
T1 construct: GeneCopoeia (γ2 cDNA); host or cells: Xenopus laevis oocytes injected with cRNAs, ratio α1:β1:γ2 1:1:2
Description: The cDNAs encoding human GABAA receptor α1 and β1 subunits were acquired from American Type Culture Collection (ATCC, Manassas, Virginia), while those encoding γ2 subunits were acquired from GeneCopoeia (Rockville, Maryland). Restriction enzymes for the cDNAs came from New England Biolabs (Ipswich, MA).
HindIII-digested and XholI-digested DNA templates encoding human α1, β1, or γ2 GABAA receptor subunits (4 μg) were transcribed through the mMESSAGE mMACHINE T7 kit from Ambion (Austin, TX). […] The solution was then treated with RNase-free DNase I and precipitated with lithium chloride. The cRNAs were dissolved in double-distilled diethyl-pyrocarbonate (DEPC) treated water to a final concentration of ~ 1–2 μg/ μL. Subunit combinations were aliquoted for the specific receptor type with total concentration remaining ~ 1–2 μg/ μL.
(§1) X. laevis were anesthetized by placing them in solution of 1 g tricaine methanesulfonate (MS222) per 500 mL in de-chlorinated water. A small incision in the abdomen was made 1 cm away from and parallel to the midline and lobes of ovary were removed. The lobes were gently agitated at room temperature with collagenase (2 mg/mL) in calcium free OR-2 (82.5 mM NaCl, 2.5 mM KCl, 1 mM MgCl2, 5 mM HEPES, pH adjusted to 7.6 with NaOH) until the ovarian epithelium and the follicular cell layer were removed (~2 hrs). Oocytes were checked for proper size and shape, color, and for the presence of distinct animal and vegetal poles. Viable oocytes were placed in ND96 solution (96 mM NaCl, 2mM KCl, 1 mM MgCl2, 1 mM CaCl2, 5 mM HEPES, pH adjusted to 7.6 with NaOH) and the oocytes were injected with 46 nL cRNAs (1–2 μg/μL) expressing the α1β1γ2 construct using a digital microdispenser (Drummond ‘Nanoject II’), with the ratio α1: β1: γ2 1:1:2. […] Injected oocytes were incubated at 18°C in a sterile solution containing Leibovitz L-15 Medium supplemented with 10 mM HEPES, 50 mg/L gentamicin and 50 mg/L tetracycline at pH 7.4.
After 24 h following injections, oocytes were placed in a recording chamber perfused continuously with ND96. All drugs were perfused into the chamber through a gravity flow system (~5 mL/min). Oocytes were impaled with two 3 M KCl-filled glass microelectrodes (~ 1–2 MΩ). Oocytes were then voltage-clamped at -60 mV with a Model OC-725C Oocyte Clamp (Warner Instruments, Hamden, CT). Currents were recorded using the iWorx LabScribe v1.959 software. The peak amplitudes of the responses were used for data analysis.
Oocytes were perfused with ND96 between trials until current returned to baseline (approximately 10–15 minutes).
Graph Pad Prism, version 5.00 (La Jolla, CA), was used for all statistical analysis of two-electrode voltage-clamp data and for fitting the curves by nonlinear regression for determinations of EC50/IC50, min and max response values, and Hill coefficients. To determine the type of competition, a Schild plot analysis was applied to the competitive binding data, utilizing a linear regression fit.

uninjected oocytes = assay: Two-electrode voltage-clamp recording of uninjected oocytes; type: cell-based, Xenopus laevis; settings: data not shown
Description: as §1
After 24 h following injections, oocytes were placed in a recording chamber perfused continuously with ND96. All drugs were perfused into the chamber through a gravity flow system (~5 mL/min). […] Currents were recorded using the iWorx LabScribe v1.959 software. […]

T1 sequence (P14867 28-456): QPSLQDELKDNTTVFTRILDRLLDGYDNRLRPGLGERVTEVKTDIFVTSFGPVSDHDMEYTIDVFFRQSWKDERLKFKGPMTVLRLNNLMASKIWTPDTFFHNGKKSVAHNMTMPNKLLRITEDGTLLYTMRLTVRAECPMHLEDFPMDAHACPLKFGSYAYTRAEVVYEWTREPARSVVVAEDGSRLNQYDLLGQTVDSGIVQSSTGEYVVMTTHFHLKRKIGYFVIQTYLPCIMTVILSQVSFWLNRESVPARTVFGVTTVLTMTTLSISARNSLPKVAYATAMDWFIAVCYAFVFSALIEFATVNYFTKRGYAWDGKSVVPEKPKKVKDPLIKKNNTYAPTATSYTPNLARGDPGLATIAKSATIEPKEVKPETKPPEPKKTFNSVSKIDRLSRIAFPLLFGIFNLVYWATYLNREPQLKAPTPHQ
T1 sequence (P18505 26-474): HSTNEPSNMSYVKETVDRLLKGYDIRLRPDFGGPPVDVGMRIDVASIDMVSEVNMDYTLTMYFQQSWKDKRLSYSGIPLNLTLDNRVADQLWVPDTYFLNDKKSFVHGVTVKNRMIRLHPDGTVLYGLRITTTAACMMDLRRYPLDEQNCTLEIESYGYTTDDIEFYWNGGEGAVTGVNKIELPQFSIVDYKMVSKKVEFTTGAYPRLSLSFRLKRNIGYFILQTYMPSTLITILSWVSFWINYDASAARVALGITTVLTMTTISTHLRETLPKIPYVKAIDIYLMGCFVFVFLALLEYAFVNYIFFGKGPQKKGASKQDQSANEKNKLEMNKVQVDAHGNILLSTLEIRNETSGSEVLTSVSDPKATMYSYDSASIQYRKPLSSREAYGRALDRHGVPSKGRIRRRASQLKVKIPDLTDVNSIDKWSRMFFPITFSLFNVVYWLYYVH
T1 sequence (P18507 40-475): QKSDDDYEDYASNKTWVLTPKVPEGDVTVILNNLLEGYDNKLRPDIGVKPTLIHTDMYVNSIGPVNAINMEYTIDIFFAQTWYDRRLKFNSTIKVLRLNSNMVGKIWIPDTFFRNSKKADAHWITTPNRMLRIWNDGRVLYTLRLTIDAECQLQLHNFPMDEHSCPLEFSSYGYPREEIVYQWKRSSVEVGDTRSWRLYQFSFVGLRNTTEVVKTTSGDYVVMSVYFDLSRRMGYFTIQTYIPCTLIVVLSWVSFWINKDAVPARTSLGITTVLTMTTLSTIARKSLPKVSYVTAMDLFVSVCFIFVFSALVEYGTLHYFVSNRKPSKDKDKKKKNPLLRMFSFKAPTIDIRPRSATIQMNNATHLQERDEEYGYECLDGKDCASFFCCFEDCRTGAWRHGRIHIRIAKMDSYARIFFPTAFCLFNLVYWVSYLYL

Compound | EC50 (α1β1γ2 GABAA receptor) | Hill coefficient of activation by IVM (α1β1γ2 GABAA receptor; absence of GABA) | concentration of apparent maximal effect of IVM (α1β1γ2 GABAA receptor; absence of GABA) | effect of IVM on uninjected oocytes (uninjected oocytes) | effect on GABA response (check of γ subunit incorporation) (α1β1γ2 GABAA receptor; oocytes injected with α1:β1:γ2 1:1:2)
CC(=O)[C@H]1CC[C@H]2[C@@H]3CC[C@H]4C[C@H](O)CC[C@]4(C)[C@H]3CC[C@]12C [ALLOP, 3α-hydroxy-5α-pregnan-20-one] | 0.9 ± 0.1 µM | – | – | – | –
CCC(C)C1OC2(CCC1C)CC1CC(CC=C(C)C(OC3CC(OC)C(OC4CC(OC)C(O)C(C)O4)C(C)O3)C(C)C=CC=C3COC4C(O)C(C)=CC(C(=O)O1)C34O)O2 (stereo not drawn) [IVM, ivermectin] | 7.1 ± 0.8 µM | 1.9 ± 0.4 | 20 to 50 µM | unaffected | –
CN1C(=O)CN=C(c2ccccc2)c2cc(Cl)ccc21 [diazepam] | – | – | – | – | potentiation
